Data published in US6319910A, “Method for inhibiting cyclooxygenase-2 and tumor necrosis factor alpha” (Hospital for Joint Diseases, priority 1998, dated 2001).

Columns and labels:
COX-2 = biological target: T1, COX-2 (Mus musculus, UniProt Q05769); assay: COX-2 specific activity in cell-free extracts of LPS-stimulated RAW 264.7 cells (PGE2 by RIA); type: biochemical, murine
T1 construct: using total unfractionated cell extracts; endogenous in cells; host or cells: RAW 264.7 cells, LPS-induced; cell-free extract
T1 sequence (Q05769 18-604): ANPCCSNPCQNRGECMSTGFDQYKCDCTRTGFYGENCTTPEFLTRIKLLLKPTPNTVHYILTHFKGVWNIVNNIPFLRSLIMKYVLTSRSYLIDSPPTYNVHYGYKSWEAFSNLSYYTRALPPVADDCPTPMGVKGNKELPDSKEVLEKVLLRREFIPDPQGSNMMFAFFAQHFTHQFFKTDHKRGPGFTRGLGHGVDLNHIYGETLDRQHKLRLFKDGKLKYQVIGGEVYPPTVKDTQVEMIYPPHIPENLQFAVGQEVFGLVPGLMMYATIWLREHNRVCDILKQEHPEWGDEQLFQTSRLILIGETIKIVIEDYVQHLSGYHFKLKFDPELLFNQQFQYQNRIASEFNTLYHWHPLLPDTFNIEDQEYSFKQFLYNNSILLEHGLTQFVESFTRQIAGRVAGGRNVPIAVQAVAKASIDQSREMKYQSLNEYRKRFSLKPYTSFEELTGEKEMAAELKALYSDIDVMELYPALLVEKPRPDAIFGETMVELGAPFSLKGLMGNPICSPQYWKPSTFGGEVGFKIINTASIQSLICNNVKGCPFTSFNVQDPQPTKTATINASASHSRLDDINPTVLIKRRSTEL
Method: Raw 264.7 cells were stimulated with LPS and cell-free extracts were prepared as follows. RAW 264.7 cells were induced with LPS (100 ng/ml) in the presence or absence of tetracyclines or hydrocortisone for 14-20 hours. Following induction, the cells were pelleted at 4° C. and resuspended in Tris buffer: 10 mM, pH 7.4 containing 10 μg/ml each of chymostatin, antipain, leupeptin and pepstatin, 1 mM DDT and 1 mM PMSF. Cells were lysed in a Polytron PA 1200 homogenizer (Kinematica AG, Switzerland) with the cocktail of protease inhibitors after 3 cycles of rapid freeze-thawing. The lysate was centrifuged at 18,000 at 4° C. in an eppendorf centrifuge, and the resulting supernatant was used as cell-free extracts. The protein was measured by BCA assay reagent (Pierce, Rockford, Ill.) using BSA as standard. […] The specific enzyme activity was defined as ng of PGE2 released/mg protein/37° C. for 20 minutes.
RAW 264.7 cells were stimulated with 1 μg/ml of LPS for 16 hours and cell-free extracts were prepared as described above. The extracts were incubated with different modulators for 20 minutes at 37° C. before adding the substrate to initiate the enzyme reaction, which was terminated after 30 minutes by heat inactivation. The data represent one of the two experiments, the PGE2 analysis from each sample was done in triplicates n=3. The p value is a comparison between control and experimentals.

RAW 264.7 cells = assay: Nitrite (NO) production/accumulation in LPS-stimulated RAW 264.7 cells; type: cell-based, murine; conditions: LPS 100 ng/ml; for Nitrite / inhibition at 10 µg/mL: compound 10 μg/ml; for Effect on NO production: words; for inhibition at 10 µg/mL: Mus musculus, RAW264.7, 16 h
Method: Murine macrophages (RAW 263.7 cells) which were grown in Dulbecco's modified eagle medium (DMEM) containing 10% fetal bovine serum, 2 mM glutamine, 50 U/ml penicillin and 50 μg/ml streptomycin, were stimulated with 100 ng/ml LPS to induce both NOS and COX-2 at 16 hr. […] The data presented in FIG. 1 represents mean±SD as examined by T test were n=3.
The effects of CMTs 1, 2, 3, 5 and 8 on PGE2 and NO accumulation in RAW 264.7 cells were further evaluated as described above for CMT-3. […]

For NC(=O)C1=C(O)C2(O)C(=O)C3=C(O)c4c(O)cccc4CC3CC2CC1=O (centres unmarked) [CMT-3, 6-demethyl-6-deoxy-4-dedimethylaminotetracycline], the “Effect on specific activity of COX-2” value (COX-2; CMT-3 27 μM, CMT-8 27 μM, aspirin 56 μM, indomethacin 28 μM, words) was “significantly inhibited the specific activity of COX-2”, the “COX-2 Specific Activity” value (COX-2; Table 3, cell-free extracts, 10 μg (aspirin amount not given)) was 2.8 ± 4.0 PGE2 ng/mg protein and the Nitrite (RAW 264.7 cells; Experiment I, 16 hours) was 24.7 µM. The Nitrite (RAW 264.7 cells; Experiment II, 16 hours) was 11.7 µM, the “Effect on NO production” value (RAW 264.7 cells; FIG. 1, 16 hours) was “blocks both NO and PGE2 production” and the “Effect on NO production” value (RAW 264.7 cells; FIG. 2) was “inhibit”. It also gave an inhibition at 10 µg/mL (RAW 264.7 cells; Experiment I, 16 hours) of 48% and an inhibition at 10 µg/mL (RAW 264.7 cells; Experiment II, 16 hours) of 46%.
